Source: patent US20230365566A1, “HETEROCYCLIC AMIDES AND THEIR USE FOR MODULATING SPLICING” (REMIX THERAPEUTICS INC., priority 2020, published 2023)

How the values were obtained:
Assay type in all cases: cell-based
SMN2 CJ mRNA = assay: Gene panel canonical junction qPCR assay, SMN2; details: protocol of Example 42, read-out: SMN2 IC50 (decrease in CJ mRNA levels)
In short: (§1)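 A673 or K562 cells treated 24 h at 37° C with 11-point 3-fold dilutions (top 10 uM, DMSO ≤0.25%). Canonical junction mRNA quantified by RT-qPCR, normalized to GAPDH, GUSB or PPIA and DMSO control (2^(−ΔΔCt)). 4-parameter logistic fit gives IC50 for CJ decrease.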

Target C CJ mRNA = assay: Gene panel canonical junction qPCR assay, Target C; details: protocol of Example 42, read-out: Target C IC50 (decrease in CJ mRNA levels)
In short: as §1

HTT CJ mRNA = assay: Gene panel canonical junction qPCR assay, HTT; details: protocol of Example 42, read-out: HTT IC50 (decrease in CJ mRNA levels)
In short: as §1

[1] = system: HTT mRNA canonical junction (CJ); assay: Splicing RT-qPCR assay, decrease of HTT canonical junction (CJ) mRNA; details: A673 or K562 cells, 24 hours compound treatment, concentration having 50% response in CJ decrease
In short: (§2)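 A673 (DMEM, 10% FBS) or K562 (IMDM, 10% FBS) cells exposed 24 h at 37 °C to an 11-point 3-fold series, top dose 10 uM final, DMSO ≤0.25%. Lysates assayed by RT-qPCR for HTT CJ and AJ, normalized to GAPDH, GUSB or PPIA and DMSO control via 2^(−ΔΔCt).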

[2] = system: HTT mRNA alternative junction (AJ); assay: Splicing RT-qPCR assay, increase of HTT alternative junction (AJ) mRNA; details: A673 or K562 cells, 24 hours compound treatment, concentration having 50% response in AJ increase
In short: as §2

Row | IC50 (SMN2 CJ mRNA) | IC50 (Target C CJ mRNA) | IC50 (HTT CJ mRNA) | Structure (SMILES) | AC50 [1] | AC50 [2]
1 | < 0.1 µM | 0.1 to 1 µM | 0.1 to 1 µM | CCNC1CCN(c2ccc(C(=O)Nc3cc(F)c4nc(C)cn4c3)c3nn(C)cc23)CC1 [Compound 252] | 0.1 to 1 µM | 0.1 to 1 µM
2 | 1 to 10 µM | > 10 µM | > 10 µM | Cc1cn2nc(NC(=O)c3ccc(N4CCNCC4)c4nn(C)cc34)nc2c(C)n1 [Compound 253] | > 10 µM | > 10 µM
3 | 1 to 10 µM | > 10 µM | 1 to 10 µM | Cc1cc2c(N3CCNCC3)ccc(C(=O)Nc3ccc4cn(C)nc4c3)c2o1 [Compound 261, 2-methyl-N-(2-methylindazol-6-yl)-4-(piperazin-1-yl)-1-benzofuran-7-carboxamide] | 1 to 10 µM | 1 to 10 µM
4 | < 0.1 µM | > 10 µM | > 10 µM | Cc1cn2cc(NC(=O)c3ccc(N4CCNCC4)c4cc(C)oc34)c(C)cc2n1 [Compound 262] | > 10 µM | > 10 µM
5 | < 0.1 µM | 1 to 10 µM | 1 to 10 µM | Cc1cn2cc(NC(=O)c3ccc(N4CCNCC4)c4cc(C)oc34)ncc2n1 [Compound 263] | 1 to 10 µM | 1 to 10 µM
6 | < 0.1 µM | > 10 µM | 1 to 10 µM | Cc1cn2cc(NC(=O)c3ccc(N4CCNCC4)c4cc(C)oc34)cc(Cl)c2n1 [Compound 266] | 1 to 10 µM | 1 to 10 µM
7 | 0.1 to 1 µM | > 10 µM | > 10 µM | Cc1cn2cc(NC(=O)c3ccc(C4CC(C)(C)NC(C)(C)C4)c4cc(C)oc34)cc(F)c2n1 [Compound 271, N-[8-fluoro-2-methylimidazo[1,2-a]pyridin-6-yl]-2-methyl-4-(2,2,6,6-tetramethylpiperidin-4-yl)-1-benzofuran-7-carboxamide] | > 10 µM | > 10 µM
8 | < 0.1 µM | > 10 µM | > 10 µM | Cc1cn2cc(NC(=O)c3ccc(N4CCNCC4)c4cn(C)nc34)nc2c(C)n1 [Compound 273] | > 10 µM | > 10 µM
9 | < 0.1 µM | > 10 µM | 1 to 10 µM | Cc1cn2cc(NC(=O)c3ccc(N4CCNCC4)c4cn(C)nc34)cc(C(F)(F)F)c2n1 [Compound 275] | 1 to 10 µM | 1 to 10 µM
10 | < 0.1 µM | 1 to 10 µM | 0.1 to 1 µM | Cc1cn2cc(NC(=O)c3ccc(N4CCNC(C)C4)c4cn(C)nc34)cc(Cl)c2n1 (stereo not drawn) [Compound 277, N-{8-chloro-2-methylimidazo[1,2-a]pyridine-6-yl}-2-methyl-4-(3-methylpiperazin-1-yl)indazole-7-carboxamide] | 0.1 to 1 µM | 0.1 to 1 µM
11 | < 0.1 µM | 1 to 10 µM | 1 to 10 µM | Cc1cn2cc(NC(=O)c3ccc(N4CCC(N(C)C)C4)c4cn(C)nc34)cc(Cl)c2n1 (stereo not drawn) [Compound 278, N-{8-chloro-2-methylimidazo[1,2-a]pyridin-6-yl}-4-[3-(dimethylamino)pyrrolidin-1-yl]-2-methylindazole-7-carboxamide] | 1 to 10 µM | 1 to 10 µM

Continued, compound first:

Row | Structure (SMILES) | IC50 (SMN2 CJ mRNA) | IC50 (Target C CJ mRNA) | IC50 (HTT CJ mRNA) | AC50 [1] | AC50 [2]
12 | Cc1cn2cc(NC(=O)c3ccc(N4CCN5CCCC5C4)c4cn(C)nc34)cc(F)c2n1 (stereo not drawn) [Compound 250] | < 0.1 µM | 1 to 10 µM | 0.1 to 1 µM | 0.1 to 1 µM | 0.1 to 1 µM
13 | Cc1cn2cc(NC(=O)c3ccc(N4CCC(N(C)C)CC4)c4cn(C)nc34)cc(C)c2n1 [Compound 251] | < 0.1 µM | 1 to 10 µM | 0.1 to 1 µM | 0.1 to 1 µM | 0.1 to 1 µM
14 | Cc1cn2cc(NC(=O)c3ccc(N4C[C@H]5CC[C@@H](C4)N5)c4cc(C)oc34)cc(F)c2n1 [Compound 255] | < 0.1 µM | > 10 µM | 1 to 10 µM | 1 to 10 µM | 1 to 10 µM
15 | Cc1cn2cc(NC(=O)c3ccc(C4CCN(C)CC4)c4cc(C)oc34)cc(F)c2n1 [Compound 256, N-[8-fluoro-2-methylimidazo[1,2-a]pyridin-6-yl]-2-methyl-4-(1-methylpiperidin-4-yl)-1-benzofuran-7-carboxamide] | < 0.1 µM | > 10 µM | 1 to 10 µM | 1 to 10 µM | 1 to 10 µM
16 | CCN1CCC(c2ccc(C(=O)Nc3cc(F)c4nc(C)cn4c3)c3oc(C)cc23)CC1 [Compound 257, 4-(1-ethylpiperidin-4-yl)-N-[8-fluoro-2-methylimidazo[1,2-a]pyridin-6-yl]-2-methyl-1-benzofuran-7-carboxamide] | < 0.1 µM | > 10 µM | 1 to 10 µM | 1 to 10 µM | 1 to 10 µM
17 | Cc1cn2cc(NC(=O)c3ccc(N4CCC(N(C)C)C4)c4cn(C)nc34)cc(F)c2n1 (stereo not drawn) [Compound 258] | < 0.1 µM | 1 to 10 µM | 1 to 10 µM | 1 to 10 µM | 0.1 to 1 µM
18 | Cc1cn2cc(NC(=O)c3ccc(N4CCC(NC(C)(C)C)CC4)c4cn(C)nc34)cc(F)c2n1 [Compound 259] | < 0.1 µM | 1 to 10 µM | 1 to 10 µM | 1 to 10 µM | 1 to 10 µM
19 | Cc1cn2cc(NC(=O)c3ccc(N4C[C@H]5CC[C@@H](C4)N5)c4cn(C)nc34)cc(F)c2n1 [Compound 260] | < 0.1 µM | > 10 µM | 0.1 to 1 µM | 0.1 to 1 µM | 0.1 to 1 µM
20 | Cc1cn2nc(NC(=O)c3ccc(N4CCNCC4)c4cc(C)oc34)nc2c(C)n1 [Compound 264] | > 10 µM | > 10 µM | > 10 µM | > 10 µM | > 10 µM
21 | Cc1cn2nc(NC(=O)c3ccc(N4CCNCC4)c4cc(C)oc34)cc2c(C)n1 [Compound 265] | 1 to 10 µM | > 10 µM | > 10 µM | > 10 µM | > 10 µM
22 | Cc1cn2cc(NC(=O)c3ccc(N4CCNCC4)c4cc(C)oc34)cc(C)c2n1 [Compound 267] | < 0.1 µM | > 10 µM | > 10 µM | > 10 µM | 1 to 10 µM
23 | Cc1cc2c(N3CCNCC3)ccc(C(=O)Nc3cn[nH]c3)c2o1 [Compound 268] | > 10 µM | > 10 µM | > 10 µM | > 10 µM | > 10 µM
24 | Cc1cn2cc(NC(=O)c3ccc(N4CCNCC4)c4cn(C)nc34)cc(Cl)c2n1 [Compound 269] | < 0.1 µM | 1 to 10 µM | 0.1 to 1 µM | 0.1 to 1 µM | 0.1 to 1 µM
25 | Cn1cc2c(N3CCNCC3)ccc(C(=O)Nc3cn[nH]c3)c2n1 [Compound 270] | > 10 µM | > 10 µM | > 10 µM | > 10 µM | > 10 µM
26 | Cc1cn2cc(NC(=O)c3ccc(N4CCC(N5CCCC5)C4)c4cn(C)nc34)cc(F)c2n1 (stereo not drawn) [Compound 272] | < 0.1 µM | 0.1 to 1 µM | 0.1 to 1 µM | 0.1 to 1 µM | 0.1 to 1 µM
27 | Cc1cn2cc(NC(=O)c3ccc(N4CC(C)(C)NC(C)(C)C4)c4cn(C)nc34)cc(F)c2n1 [Compound 274] | < 0.1 µM | > 10 µM | 1 to 10 µM | 1 to 10 µM | > 10 µM
28 | Cc1cn2cc(NC(=O)c3ccc(N4C[C@H]5CC[C@@H](C4)N5)c4cn(C)nc34)cc(Cl)c2n1 [Compound 279, N-{8-chloro-2-methylimidazo[1,2-a]pyridin-6-yl}-4-[(1R,5S)-3,8-diazabicyclo[3.2.1]octan-3-yl]-2-methylindazole-7-carboxamide] | < 0.1 µM | > 10 µM | 1 to 10 µM | 1 to 10 µM | 1 to 10 µM
29 | Cc1cn2cc(-c3ccc(C(=O)NC4CCNCC4)c4nn(C)cc34)cc(F)c2n1 [Compound 280, 4-{8-fluoro-2-methylimidazo[1,2-a]pyridin-6-yl}-2-methyl-N-(piperidin-4-yl)indazole-7-carboxamide] | 1 to 10 µM | > 10 µM | 1 to 10 µM | 1 to 10 µM | 1 to 10 µM
30 | Cc1cn2nc(-c3ccc(C(=O)NC4CCNCC4)c4nn(C)cc34)cc(C)c2n1 [Compound 281, 4-{2,8-dimethylimidazo[1,2-b]pyridazin-6-yl}-2-methyl-N-(piperidin-4-yl)indazole-7-carboxamide] | 0.1 to 1 µM | 1 to 10 µM | 1 to 10 µM | 1 to 10 µM | 1 to 10 µM
